Source: the supplement of paper PMC11451515

Key:
[1] = test system: SEM cells; test: AUC of viability dose-response curve (% viability x log10 dose units); higher = less sensitive; details: 48 h
Summary of the method: (§1)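 In 1536-well plates, leukemia cells adapted to each medium (500 or 1000 cells/well) were exposed for 48 h at 37°C to library compounds in DMSO across 11 threefold doses, 47 μM down to 0.79 nM. Viability was read by CellTiter-Glo One luminescence and normalised per plate to DMSO and cell-free wells. A four-parameter log-logistic fit over log10 doses was integrated by trapezoidal rule. This yielded the area under the curve, with over-full-viability curves scaled and quality-control failures dropped.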

[2] = test system: NOMO1; test: as above; details: 48 h
Summary of the method: as §1

[3] = test system: P12-Ichikawa; test: as above; details: 48 h
Summary of the method: as §1

[4] = test system: SEM cells; test: cell viability relative to DMSO control; higher = less cytotoxic; details: 48 h
Summary of the method: (§2)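 Leukemia cells (NOMO1 or SEM, 500 cells/well; P12-Ichikawa, 1000 cells/well) were seeded in 5 μl in 1536-well plates after at least four passages of adaptation to each medium. They received library compounds in DMSO by pin dosing, 11 threefold points from 47 μM to 0.79 nM. Luminescence with CellTiter-Glo One was read after 48 h at 37°C. Viability is stated per plate relative to DMSO wells, with cell-free wells as background.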

[5] = test system: P12-Ichikawa; test: as above; details: 48 h
Summary of the method: as §2

[6] = test system: NOMO1; test: as above; details: HPLM + 10% dialyzed FBS, 48 h
Summary of the method: as §2

CCOC(=O)[C@H](CCc1ccccc1)N[C@@H](C)C(=O)N1[C@H](C(=O)O)C[C@@H]2CCC[C@@H]21
AUC of viability dose-response curve
Details	[1]	[2]	[3]
HPLM + 10% dialyzed FBS	450	443	451
RPMI 5 mM glucose + 10% FBS	440	449	451
RPMI 5 mM glucose + 10% dialyzed FBS	451	444	450

Details	cell viability [%]
[4], RPMI 5 mM glucose + 10% FBS, 0.000781 µM	110
[4], RPMI 5 mM glucose + 10% FBS, 0.00234 µM	116
[4], RPMI 5 mM glucose + 10% FBS, 0.00702 µM	117
[4], RPMI 5 mM glucose + 10% FBS, 0.0211 µM	143
[4], RPMI 5 mM glucose + 10% FBS, 0.0632 µM	147
[4], RPMI 5 mM glucose + 10% FBS, 0.19 µM	127
[4], RPMI 5 mM glucose + 10% FBS, 0.569 µM	135
[4], RPMI 5 mM glucose + 10% FBS, 1.71 µM	113
[4], RPMI 5 mM glucose + 10% FBS, 5.12 µM	121
[4], RPMI 5 mM glucose + 10% FBS, 15.4 µM	89
[4], RPMI 5 mM glucose + 10% FBS, 46.1 µM	7.67
[5], HPLM + 10% dialyzed FBS, 0.000781 µM	117
[5], HPLM + 10% dialyzed FBS, 0.00234 µM	124
[5], HPLM + 10% dialyzed FBS, 0.00702 µM	127
[5], HPLM + 10% dialyzed FBS, 0.0211 µM	124
[5], HPLM + 10% dialyzed FBS, 0.0632 µM	126
[5], HPLM + 10% dialyzed FBS, 0.19 µM	128
[5], HPLM + 10% dialyzed FBS, 0.569 µM	123
[5], HPLM + 10% dialyzed FBS, 1.71 µM	126
[5], HPLM + 10% dialyzed FBS, 5.12 µM	122
[5], HPLM + 10% dialyzed FBS, 15.4 µM	115
[5], HPLM + 10% dialyzed FBS, 46.1 µM	7.37

CN1CC(=O)\N=C1\NC(=O)NC2=CC(=CC=C2)Cl
AUC of viability dose-response curve
Details	[1]	[2]	[3]
HPLM + 10% dialyzed FBS	448	452	442
RPMI 5 mM glucose + 10% FBS	471	453	459
RPMI 5 mM glucose + 10% dialyzed FBS	457	468	463

CCCCN(CCCC)C(=O)CN1C[C@H](c2ccc3c(c2)OCO3)[C@@H](C(=O)O)[C@@H]1c1ccc(OC)cc1
AUC of viability dose-response curve
Details	HPLM + 10% dialyzed FBS	RPMI 5 mM glucose + 10% FBS	RPMI 5 mM glucose + 10% dialyzed FBS
[1]	408	427	432
[2]	457	470	464

cell viability [%]
Details	HPLM + 10% dialyzed FBS	RPMI 5 mM glucose + 10% FBS	RPMI 5 mM glucose + 10% dialyzed FBS
[4], 0.000781 µM	98.6	–	112
[4], 0.00234 µM	107	–	112
[4], 0.00702 µM	114	–	125
[4], 0.0211 µM	98.2	–	84.8
[4], 0.0632 µM	103	–	116
[4], 0.19 µM	105	–	127
[4], 0.569 µM	106	–	109
[4], 1.71 µM	92.5	–	106
[4], 5.12 µM	28.4	–	74.8
[4], 15.4 µM	55.3	–	75.8
[4], 46.1 µM	63.4	–	67
[5], 0.000781 µM	112	107	–
[5], 0.00234 µM	111	122	–
[5], 0.00702 µM	113	115	–
[5], 0.0211 µM	70.2	61.9	–
[5], 0.0632 µM	116	112	–
[5], 0.19 µM	114	122	–
[5], 0.569 µM	107	123	–
[5], 1.71 µM	114	118	–
[5], 5.12 µM	106	36.1	–
[5], 15.4 µM	104	105	–
[5], 46.1 µM	88.4	99.9	–

CN1C(=O)/C=C(/NCCN(CCO)CCCC2=CC=C(C=C2)[N+]([O-])=O)N(C)C1=O
AUC of viability dose-response curve
Details	[1]	[2]	[3]
HPLM + 10% dialyzed FBS	463	463	447
RPMI 5 mM glucose + 10% FBS	450	473	443
RPMI 5 mM glucose + 10% dialyzed FBS	454	443	441

cell viability [%], [4]
Details	HPLM + 10% dialyzed FBS	RPMI 5 mM glucose + 10% FBS	RPMI 5 mM glucose + 10% dialyzed FBS
0.000781 µM	104	112	103
0.00234 µM	113	111	123
0.00702 µM	121	131	135
0.0211 µM	114	118	111
0.0632 µM	108	109	144
0.19 µM	136	138	138
0.569 µM	121	133	136
1.71 µM	119	123	137
5.12 µM	120	95.2	121
15.4 µM	108	105	107
46.1 µM	66.6	55	50.8

COc1ccnc(C[S+]([O-])c2nc3cc(OC(F)F)ccc3[nH]2)c1OC (centres undefined)
Details	AUC of viability dose-response curve	cell viability [%]
[1], HPLM + 10% dialyzed FBS	435	–
[1], RPMI 5 mM glucose + 10% FBS	431	–
[1], RPMI 5 mM glucose + 10% dialyzed FBS	461	–
[2], HPLM + 10% dialyzed FBS	459	–
[2], RPMI 5 mM glucose + 10% FBS	464	–
[2], RPMI 5 mM glucose + 10% dialyzed FBS	474	–
[3], HPLM + 10% dialyzed FBS	474	–
[3], RPMI 5 mM glucose + 10% FBS	456	–
[3], RPMI 5 mM glucose + 10% dialyzed FBS	461	–
[6], 0.000781 µM	–	111
[6], 0.00234 µM	–	124
[6], 0.00702 µM	–	119
[6], 0.0211 µM	–	131
[6], 0.0632 µM	–	124
[6], 0.19 µM	–	134
[6], 0.569 µM	–	126
[6], 1.71 µM	–	115
[6], 5.12 µM	–	134
[6], 15.4 µM	–	128
[6], 46.1 µM	–	126

cell viability [%], [4]
Details	HPLM + 10% dialyzed FBS	RPMI 5 mM glucose + 10% dialyzed FBS
0.000781 µM	110	111
0.00234 µM	111	95.9
0.00702 µM	124	126
0.0211 µM	123	131
0.0632 µM	122	125
0.19 µM	123	118
0.569 µM	133	127
1.71 µM	119	144
5.12 µM	134	126
15.4 µM	128	130
46.1 µM	143	137
